# Tests used:
# [1] = Storage stability of crystal form drug substance (HPLC purity and XRPD); assay type: physicochemical
# Protocol: The X-ray powder diffraction pattern described in the invention is collected by a Bruker X-ray powder diffractometer. The parameters for the X-ray powder diffraction method according to the invention are as follows: • X-ray light source: Cu, Kα, • Kα1 (Å): 1.54060; Kα2 (Å): 1.54439, • Kα2/Kα1 intensity ratio: 0.50.
# An appropriate amount of a crystal-form-CSI sample was packaged under corresponding packaging conditions and stored at 40° C./75% RH for a certain period of time, the purity and crystal form were determined by HPLC and XRPD, and the results are shown in Table 7.
# Open: a sample was placed in a glass vial without a lid and stored in corresponding environment while the vial was open.
# An appropriate amount of a crystal-form-CSII sample was packaged under corresponding packaging conditions and stored for a certain period of time at 25° C./60% RH, 40° C./75% RH, and 60° C./75% RH, the purity and crystal form were determined by HPLC and XRPD, and the result is shown in Table 12.
# Sealing: The sample was placed in a glass vial, which was covered by a lid and sealed in a double-layer PE bag, followed by an aluminum foil bag. […]
# Sealed: The sample was placed in a glass vial, which was covered by a lid and sealed in a double-layer PE bag, followed by an aluminum foil bag. […]
# An appropriate amount of a crystal-form-CSV sample was packaged under corresponding packaging conditions and stored for a certain period of time at 25° C./60% RH, 40° C./75% RH, and 60° C./75% RH, the purity and crystal form were determined by HPLC and XRPD, and the result is shown in Table 16.
# [2] = Stability under mechanical force: ball milling, XRPD; assay type: physicochemical; conditions: 500 rpm, 5 minutes, XRPD before and after
# Protocol: A crystal-form-CSII sample was ball-milled at a vibration speed of 500 rpm for 5 minutes using a ball mill, the sample before and after ball milling was tested by XRPD, the test result is shown in FIG. 17, and crystal form CSII is not changed after ball milling.
# A crystal-form-CSIII sample was ball-milled at a vibration speed of 500 rpm for 5 minutes using a ball mill. The sample before and after ball milling was tested by XRPD, the test result is shown in FIG. 22, and crystal form CSIII is not changed after the ball milling.
# A crystal-form-CSIV sample was ball-milled at a vibration speed of 500 rpm for 5 minutes using a ball mill, the sample before and after ball milling was tested by XRPD, the test result is shown in FIG. 25, and crystal form CSIV is not changed after ball milling.
# A crystal-form-CSV sample was ball-milled at a vibration speed of 500 rpm for 5 minutes using a ball mill, the sample before and after ball milling was tested by XRPD, the test result is shown in FIG. 28, and crystal form CSV is not changed after ball milling.
# [3] = Stability under mechanical force: tableting, XRPD; assay type: physicochemical; conditions: 15 KN, φ 6 mm round tooling, XRPD before and after
# [4] = Hygroscopicity by dynamic vapor sorption (DVS); assay type: physicochemical; conditions: for weight increase due to hygroscopicity: 25° C.
# Protocol: The dynamic vapor sorption (DVS) pattern for the experiment is collected by an Intrinsic dynamic vapor sorption instrument manufactured by Surface Measurement Systems Ltd. (SMS). Control software for the instrument is DVS-Intrinsic control software. The method parameters of the dynamic vapor sorption instrument are as follows: • temperature: 25° C., • carrier gas, and flow rate: N2, and 200 ml/min, • mass change per unit time: 0.002%/min, • relative humidity range: 0% RH-95% RH.
# (§1) About 10 mg of a crystal-form-CSI sample was taken and tested for hygroscopicity using a dynamic vapor sorption (DVS) instrument, with a relative humidity cycle of 30%-90%-0%-90% RH, and a mass change for each humidity was recorded. The sample was tested by XRPD before and after DVS testing. […] The DVS pattern of crystal form CSI is shown in FIG. 13, and the weight increase of crystal form CSI due to hygroscopicity is 0.36% at 30%-80% RH.
# as §1, with “crystal-form-CSII” for “crystal-form-CSI”, “0%-90%-0%” for “30%-90%-0%-90%”, “CSII” for “CSI”, “18,” for “13,”, “0.28%” for “0.36%”, “0%-80%” for “30%-80%”
# as §1, with “crystal-form-CSIII” for “crystal-form-CSI”, “0%-90%-0%” for “30%-90%-0%-90%”, “CSIII” for “CSI”, “23,” for “13,”, “0.21%” for “0.36%”, “0%-80%” for “30%-80%”
# as §1, with “crystal-form-CSIV” for “crystal-form-CSI”, “0%-90%-0%” for “30%-90%-0%-90%”, “CSIV” for “CSI”, “26,” for “13,”, “0.11%” for “0.36%”, “0%-80%” for “30%-80%”
# as §1, with “crystal-form-CSV” for “crystal-form-CSI”, “a” for “a relative humidity”, “CSV” for “CSI”, “29,” for “13,”, “0.29%” for “0.36%”
# [5] = Crystal form stability in formulation process, XRPD; assay type: physicochemical; conditions: formula Table 8, process Table 10, XRPD
# Protocol: A crystal-form-CSI formulation was prepared by using the formulation formula shown in table 8 and the formulation process shown in table 10, and a formula for mixture of excipients is shown in table 9. A mixture of excipients and the sample before and after the formulation formulas were tested by XRPD, and the result is shown in FIG. 14.
# (§2) A crystal-form-CSII formulation was prepared by using the formulation formula shown in Table 8 and the formulation process shown in Table 10, and an excipient formula is shown in Table 9. A mixture of excipients and the sample before and after the formulation formulas were tested by XRPD, and the result is shown in FIG. 19.
# as §2, with “crystal-form-CSV” for “crystal-form-CSII”, “30.” for “19.”
# [6] = Thermal gravimetric analysis (TGA); assay type: physicochemical; conditions: 10° C./min, N2
# Protocol: The thermal gravimetric analysis (TGA) pattern as described in the invention is collected by TA Q500. The parameters for the thermal gravimetric analysis (TGA) method described in the invention are as follows: • scanning speed: 10° C./min, • protective gas: N2.
# [7] = Phase-Ib clinical result, Cerevel Therapeutics; cited from earlier work
# [8] = heated from room temperature to 180° C.
stable for at least ([1]; 25° C./60% RH),"Crystal Form ([1]; 25° C./60% RH, sealed, 6 month)","Purity ([1]; 25° C./60% RH, sealed, 6 month)",stable for at least ([1]; 40° C./75% RH),"Crystal Form ([1]; 40° C./75% RH, sealed, 6 month)","Purity ([1]; 40° C./75% RH, sealed, 6 month)",stable for at least ([1]; 60° C./75% RH),Crystal Form ([1]; initial (before storage)),Purity ([1]; initial (before storage)),crystal form after ball milling [2],crystal form after tableting [3],weight increase due to hygroscopicity ([4]; 30%-80% RH),crystal form after DVS testing ([4]; 30%-90%-0%-90% RH cycle),crystal form after formulation formula processes [5],"Crystal Form ([1]; 60° C./75% RH, sealed, 1 month)",weight increase due to hygroscopicity ([4]; 0%-80% RH),crystal form after DVS testing ([4]; 0%-90%-0% RH cycle),"TGA weight loss [6, 8]",SMILES,change in sample properties after humidity cycle ([4]; 30%-90%-0%-90% RH cycle),change in sample properties after humidity cycle ([4]; 0%-90%-0% RH cycle),further results
at least 6 months,Form CSII,99.60%,at least 6 months,Form CSII,99.57%,at least 1 month,Form CSII,99.56%,not changed,not changed,–,–,not changed,Form CSII,0.28%,not changed,substantially no weight loss,Cc1cc(C)c2c(n1)CN(C(=O)CC1CN(c3ccnc(C(F)(F)F)c3)C1)C2 [Crystal Form CSII],–,no significant change in sample properties,"Purity ([1]; 60° C./75% RH, sealed, 1 month): 99.55%"
–,–,–,at least 6 months,–,–,–,Form CSI,99.53%,remains unchanged,remains unchanged,0.36%,remains unchanged,not changed,–,–,–,–,Cc1cc(C)c2c(n1)CN(C(=O)CC1CN(c3ccnc(C(F)(F)F)c3)C1)C2 [Crystal Form CSI],no significant change in sample properties,no significant change in sample properties,"Crystal Form ([1]; 40° C./75% RH, open, 6 month): Form CSI; Purity ([1]; 40° C./75% RH, open, 6 month): 99.59%"
–,–,–,at least 2 months,–,–,–,Form CSIII,–,not changed,–,–,–,–,–,0.21%,not changed,–,Cc1cc(C)c2c(n1)CN(C(=O)CC1CN(c3ccnc(C(F)(F)F)c3)C1)C2 [Crystal Form CSIII],–,–,"Crystal Form ([1]; 40° C./75% RH, sealed, 2 month): Form CSIII; TGA weight loss ([6]; heated from room temperature to 170° C.): substantially no weight loss"

# More lines, now with the values behind:
SMILES,stable for at least ([1]; 25° C./60% RH),"Crystal Form ([1]; 25° C./60% RH, sealed, 6 month)","Purity ([1]; 25° C./60% RH, sealed, 6 month)",stable for at least ([1]; 40° C./75% RH),"Crystal Form ([1]; 40° C./75% RH, sealed, 6 month)","Purity ([1]; 40° C./75% RH, sealed, 6 month)",stable for at least ([1]; 60° C./75% RH),Crystal Form ([1]; initial (before storage)),Purity ([1]; initial (before storage)),crystal form after ball milling [2],crystal form after tableting [3],weight increase due to hygroscopicity ([4]; 30%-80% RH),crystal form after DVS testing ([4]; 30%-90%-0%-90% RH cycle),crystal form after formulation formula processes [5],"Crystal Form ([1]; 60° C./75% RH, sealed, 1 month)",weight increase due to hygroscopicity ([4]; 0%-80% RH),crystal form after DVS testing ([4]; 0%-90%-0% RH cycle),"TGA weight loss [6, 8]",change in sample properties after humidity cycle ([4]; 30%-90%-0%-90% RH cycle),change in sample properties after humidity cycle ([4]; 0%-90%-0% RH cycle),further results
Cc1cc(C)c2c(n1)CN(C(=O)CC1CN(c3ccnc(C(F)(F)F)c3)C1)C2 [Crystal Form CSV],at least 6 months,Form CSV,99.96%,at least 6 months,Form CSV,99.96%,at least 2 month,Form CSV,99.96%,not changed,not changed,0.29%,not changed,not changed,–,–,–,–,no significant change in sample properties,–,"Crystal Form ([1]; 60° C./75% RH, sealed, 2 month): Form CSV; Purity ([1]; 60° C./75% RH, sealed, 2 month): 99.95%; TGA weight loss ([6]; heated from 35° C. to 150° C.): 3.8%"
Cc1cc(C)c2c(n1)CN(C(=O)CC1CN(c3ccnc(C(F)(F)F)c3)C1)C2 [Crystal Form CSIV],at least 6 months,Form CSIV,–,at least 6 months,Form CSIV,–,at least 1 month,Form CSIV,–,not changed,–,–,–,–,Form CSIV,0.11%,not changed,substantially no weight loss,–,no significant change in sample properties,–
"Cc1cc(C)c2c(n1)CN(C(=O)CC1CN(c3ccnc(C(F)(F)F)c3)C1)C2 [Emraclidine, 1-(2,4-dimethyl-5,7-dihydro-6H-pyrrolo[3,4-b]pyridin-6-yl)-2-{1-[2-(trifluoromethyl)pyridin-4-yl]azetidin-3-yl}ethanone]",–,–,–,–,–,–,–,–,–,–,–,–,–,–,–,–,–,–,–,–,antipsychotic activities compared to placebos [7]: clinically significant antipsychotic activities

# From patent publication US20260337191A1, “CRYSTAL FORM OF EMRACLIDINE, PREPARATION METHOD THEREFOR, AND USE THEREOF” (Cerevel Therapeutics, LLC, priority 2022, published 2026)
